SMILES strings stand for the structures. Like-named read-outs stand apart in the source and are kept apart here.

These results are taken from patent US6528655B1, “Aromatic derivatives with HIV integrase inhibitory properties” (Pharmacor, Inc., priority 2000, dated 2003).

The experiment concerns the target HIV-1 integrase (Human immunodeficiency virus type 1 group M subtype B, UniProt P04585). Description: HIV-1 integrase inhibition assay (radiolabeled duplex substrate corresponding to the U5 end of the HIV LTR). Type of experiment: biochemical. The procedure: For the purpose of Table 1 to 4, the HIV-1 integrase inhibition assay was carried out following a known procedure (Burke, Jr. T. R. et al., J. Med. Chem. 38, 4171-4178 (1995)). A suitable radiolabeled duplex substrate corresponding to the U5 end of the HIV LTR was used.
For the purposes of Table 1 to 4 the HIV-1 integrase inhibition assay was based on a known procedure (Hazuda, D. J. et al., Nucleic Acids Res. 22 1121-1122 (1994)).

The mark [1] stands for this setting: Table 4, compounds of formula I′, read-out: IC50.

What is called IC50 is the concentration at which inhibition is half-maximal. `CC(C)(C)OC[C@H](NC(=O)c1ccc(OCc2ccc(F)cc2)c(OCc2ccc(F)cc2)c1)C(=O)NCCc1ccc(O)c(O)c1` [Example 97, N-[Nα-(3,4-di-(4-Fluorobenzyloxy)benzoyl)-O-tert-butyl-L-seryl]dopamine] had an IC50 of 2.9 µM. As for `O=C(C=Cc1ccc(OCc2ccc(F)cc2)c(OCc2ccc(F)cc2)c1)NCC(=O)NCCc1cccs1` [Example 98, N-[Nα-(3,4-di-(4-Fluorobenzyloxy)caffeoyl)-glycyl]-2-(2′-thiophenyl)ethylamine], the IC50 under setting [1] is more than 10 µM. `CC(C)(C)OC(=O)CC[C@H](NC(=O)c1ccc(OCc2ccc(F)cc2)c(OCc2ccc(F)cc2)c1)C(=O)NCc1ccccc1` [Example 99, N-[Nα-(3,4-di-(4-Fluorobenzyloxy)benzoyl)-Oδ-tert-butyl-L-glutamyl]benzylamine] showed an IC50 of more than 10 µM. In the case of `O=C(C=Cc1ccc(OCc2ccc(F)cc2)c(OCc2ccc(F)cc2)c1)NCC(=O)NCCc1ccc(O)c(O)c1` [Example 100, N-[Nα-(3,4-di-(4-Fluorobenzyloxy)caffeoyl)-L-glycyl)dopamine], under setting [1], the IC50 was 2.6 µM.

Regarding `CC(C)(C)OC(=O)CC[C@H](NC(=O)c1cccn1Cc1ccc(F)cc1)C(=O)NCCc1cccs1` [Example 101, N-[Nα-(N′-(4-Fluorobenzyl)pyrrole-2-carbonyl)-Oδ-tert-butyl-L-glutamyl]-2-(2′-thiophenyl)ethylamine], the IC50 is more than 10 µM.

As to `CC(C)(C)OC(=O)CC[C@H](NC(=O)c1cc2ccccc2n1Cc1ccc(F)cc1)C(=O)NCCc1cccs1` [Example 102, N-[Nα-(N′-(4-Fluorobenzyl)indole-2-carbonyl)-Oδ-tert-butyl-L-glutamyl]-2-(2′-thiophenyl)ethylamine], the IC50 is more than 10 µM. Turning to `O=C(O)CC[C@H](NC(=O)c1cccn1Cc1ccc(F)cc1)C(=O)NCCc1cccs1` [Example 103, N-[Nα-(N′-(4-Fluorobenzyl)pyrrole-2-carbonyl)-L-glutamyl]-2-(2′-thiophenyl)ethylamine], the IC50 is more than 10 µM.

In turn, `O=C(O)CC[C@H](NC(=O)c1cc2ccccc2n1Cc1ccc(F)cc1)C(=O)NCCc1cccs1` [Example 104, N-[Nα-(N′-(4-Fluorobenzyl)indole-2-carbonyl)-L-glutamyl]-2-(2′-thiophenyl)ethylamine] had an IC50 of more than 10 µM. Still for that read-out and setting: in the case of `CC(C)(C)OC(=O)CC[C@H](NC(=O)c1cc(O)c2cccc(O)c2n1)C(=O)NCCc1cccs1` [Example 105, N-[Nα-(4,8-Dihydroxyquinoline-2-carbonyl)-Oδ-tert-butyl-L-glutamyl]-2-(2′-thiophenyl)ethylamine] it was more than 10 µM; in that of `O=C(O)CC[C@H](NC(=O)c1cc(O)c2cccc(O)c2n1)C(=O)NCCc1cccs1` [Example 106, N-[Nα-(4,8-Dihydroxyquinoline-2-carbonyl)-L-glutamyl]-2-(2′-thiophenyl)ethylamine], more than 10 µM. On to `CC(C)(C)OC(=O)CC[C@H](NC(=O)c1cc(F)ccc1O)C(=O)NCCc1cccs1` [Example 107, N-[Nα-(5-Fluoro-2-hydroxybenzoyl)-Oδ-tert-butyl-L-glutamyl]-2-(2′-thiophenyl)ethylamine], for which the IC50 is more than 10 µM. `O=C(O)CC[C@H](NC(=O)c1cc(F)ccc1O)C(=O)NCCc1cccs1` [Example 108, N-[Nα-(5-Fluoro-2-hydroxybenzoyl)-L-glutamyl]-2-(2′-thiophenyl)ethylamine] had an IC50 of more than 10 µM.

For `COc1ccc(NC(=O)[C@H](CCC(=O)NC(c2ccccc2)(c2ccccc2)c2ccccc2)NC(=O)c2cc3ccccc3n2Cc2ccc(F)cc2)cc1O` [Example 109, N-[Nα-(N′-(4-Fluorobenzyl)indole-2-carbonyl)-Nδ-trityl-L-glutaminyl]-3-hydroxy-4-methoxyaniline], the IC50 under setting [1] stood at 5.3 µM. Take `COc1ccc(NC(=O)[C@H](CCC(=O)NC(c2ccccc2)(c2ccccc2)c2ccccc2)NC(=O)c2ccc(OCc3ccc(F)cc3)c(OCc3ccc(F)cc3)c2)cc1O` [Example 111, N-[Nα-(3,4-di-(4-Fluorobenzyloxy)benzoyl)-Nδ-trityl-L-glutaminyl]-3-hydroxy-4-methoxyaniline]: the IC50 turned out to be 6.1 µM.
